Laboratory results: US12435061B2 (priority 2020, dated 2025)
Where two headings read alike, the source gives them in different places.

Biological target: hTRPV3 (Homo sapiens (Human), UniProt Q8NET8)
Test: Whole-cell patch clamp, hTRPV3 Phase 1 / Phase 2 currents
Format: cell-based
Method in brief: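 Whole-cell recordings on induced TRPV3 cells replated on coverslips, held at −40 mV with 400 ms ramps from −120 to +100 mV every 5 s; currents read at −80 and +80 mV. Ringer's external solution; current activated by heating to ≥28 °C or 20 μM 2-APB.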

[1] = Phase 1 current, inward, whole-cell patch clamp, read-out: hTRPV3 Patch P1 Inwd
[2] = Phase 1 current, read-out: hTRPV3 (nM) (Phase 1)
[3] = Phase 2 current, inward, whole-cell patch clamp, read-out: hTRPV3 Patch P2 Inwd
[4] = Phase 2 current, read-out: hTRPV3 (nM) (Phase 2)
[5] = Phase 1 current, human TRPV3, read-out: hTRPV3 (nM) Phase 1

Sequence of hTRPV3 (Q8NET8 whole entry): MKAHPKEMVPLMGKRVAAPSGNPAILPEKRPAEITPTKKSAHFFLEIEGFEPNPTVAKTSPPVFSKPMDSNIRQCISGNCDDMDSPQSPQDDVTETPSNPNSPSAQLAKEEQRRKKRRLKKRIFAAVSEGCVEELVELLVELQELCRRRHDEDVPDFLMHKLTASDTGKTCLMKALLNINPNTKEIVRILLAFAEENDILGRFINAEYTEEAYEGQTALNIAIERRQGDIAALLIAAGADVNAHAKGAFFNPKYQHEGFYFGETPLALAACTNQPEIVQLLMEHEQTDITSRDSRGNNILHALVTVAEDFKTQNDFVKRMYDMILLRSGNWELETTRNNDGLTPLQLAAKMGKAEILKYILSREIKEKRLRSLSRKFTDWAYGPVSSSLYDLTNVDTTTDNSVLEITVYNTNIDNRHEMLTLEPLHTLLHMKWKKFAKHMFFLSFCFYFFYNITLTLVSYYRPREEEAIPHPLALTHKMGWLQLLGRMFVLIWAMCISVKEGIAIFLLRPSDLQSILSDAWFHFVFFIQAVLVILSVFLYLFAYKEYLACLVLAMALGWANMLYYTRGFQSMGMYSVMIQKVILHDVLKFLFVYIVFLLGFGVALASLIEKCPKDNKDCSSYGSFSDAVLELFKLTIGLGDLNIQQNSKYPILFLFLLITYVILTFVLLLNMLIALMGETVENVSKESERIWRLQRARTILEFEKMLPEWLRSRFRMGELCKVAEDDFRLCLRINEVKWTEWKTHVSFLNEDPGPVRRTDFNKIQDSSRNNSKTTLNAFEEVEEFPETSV

SMILES | IC50 [1] | IC50 [2] | IC50 [3] | IC50 [4] | IC50 [5]
CCc1ccccc1C(O)c1ccc(N2CC[C@H](Nc3ncccc3Cl)C2)c(CO)c1 (stereo partly drawn) [Compound 1-386, (4-((S)-3-(3-chloropyridin-2-ylamino)pyrrolidin-1-yl)-3-(hydroxymethyl)phenyl)(2-ethylphenyl)methanol] | > 1000 nM | ~1260 nM | > 1000 nM | ~2150 nM | 
CCc1ccccc1C(=O)c1ccc(N2CC[C@H](Nc3ncccc3Cl)C2)c(CCO)c1 [Compound 1-387, (S)-(4-(3-(3-chloropyridin-2-ylamino)pyrrolidin-1-yl)-3-(2-hydroxyethyl)phenyl)(2-ethylphenyl)methanone] | > 1000 nM | 1630 nM |  |  | 
O=C(c1ccc(Cl)cc1)c1ccc(N2CC[C@H](Nc3ccc(F)cn3)C2)c(CCO)c1 [Compound 1-388, (S)-(4-chlorophenyl)(4-(3-(5-fluoropyridin-2-ylamino)pyrrolidin-1-yl)-3-(2-hydroxyethyl)phenyl)methanone] | > 1000 nM | > 3200 nM |  |  | 
O=C(c1ccc(N2CC[C@H](Nc3ccc(F)cn3)C2)c(CCO)c1)c1ccccc1Cl [Compound 1-389, (S)-(2-chlorophenyl)(4-(3-(5-fluoropyridin-2-ylamino)pyrrolidin-1-yl)-3-(2-hydroxyethyl)phenyl)methanone] | > 1000 nM | > 3200 nM |  |  | 
OCCc1cc(C(O)c2ccc(Cl)cc2)ccc1N1CC[C@H](Nc2ccc(F)cn2)C1 (stereo partly drawn) [Compound 1-391, 2-(5-((4-chlorophenyl)(hydroxy)methyl)-2-((S)-3-(5-fluoropyridin-2-ylamino)pyrrolidin-1-yl)phenyl)ethanol] | > 1000 nM | > 3200 nM |  |  | 
OCCc1cc(C(O)c2cccc(Cl)c2)ccc1N1CC[C@H](Nc2ccc(F)cn2)C1 (stereo partly drawn) [Compound 1-392, 2-(5-((3-chlorophenyl)(hydroxy)methyl)-2-((S)-3-(5-fluoropyridin-2-ylamino)pyrrolidin-1-yl)phenyl)ethanol] | > 1000 nM | > 3200 nM |  |  | 
O=C(c1cccc(Cl)c1)c1ccc(N2CC[C@H](Nc3ccc(F)cn3)C2)c(CCO)c1 [Compound 1-393, (S)-(3-chlorophenyl)(4-(3-(5-fluoropyridin-2-ylamino)pyrrolidin-1-yl)-3-(2-hydroxyethyl)phenyl)methanone] | > 1000 nM | ~2950 nM | > 1000 nM | > 3200 nM | 
OCc1nc(-c2ccccc2)ccc1N1CC[C@H](Oc2nc(C(F)(F)F)cs2)C1 [Compound 1-396, (S)-(6-phenyl-3-(3-(4-(trifluoromethyl)thiazol-2-yloxy)pyrrolidin-1-yl)pyridin-2-yl)methanol] | > 1000 nM | 1130 nM | > 1000 nM | 2900 nM | 
OCc1cc(-c2ccccc2)ccc1N1CC[C@H](Oc2ccc(C(F)(F)F)nn2)C1 [Compound 1-397, (S)-(4-(3-(6-(trifluoromethyl)pyridazin-3-yloxy)pyrrolidin-1-yl)biphenyl-3-yl)methanol] | > 1000 nM | 2740 nM | > 1000 nM | 1370 nM | 
Cc1cccnc1CO[C@H]1CCN(c2ccc(-c3ccccc3)cc2CO)C1 [Compound 1-399] |  | > 3200 nM |  | 481 nM | 
Cc1cccc(C(O)c2ccc(C3CCN(C(=O)c4ncccc4Cl)C3)c(CO)c2)c1 (stereo not drawn) [Compound 2-2, (3-chloropyridin-2-yl)(3-(4-(hydroxy(m-tolyl)methyl)-2-(hydroxymethyl)phenyl)pyrrolidin-1-yl)methanone] | 100 to 1000 nM |  |  |  | 
O=C(c1ncccc1Cl)N1CCC(c2ccc(C(O)c3ccc(F)cc3)cc2CO)C1 (stereo not drawn) [Compound 2-4, (3-chloropyridin-2-yl)(3-(4-((4-fluorophenyl)(hydroxy)methyl)-2-(hydroxymethyl)phenyl)pyrrolidin-1-yl)methanone] | > 1000 nM |  |  |  | > 3200 nM
O=C(c1ncccc1Cl)N1CCC(c2ccc(C(O)c3ccccc3F)cc2CO)C1 (stereo not drawn) [Compound 2-5, (3-chloropyridin-2-yl)(3-(4-((2-fluorophenyl)(hydroxy)methyl)-2-(hydroxymethyl)phenyl)pyrrolidin-1-yl)methanone] | > 1000 nM |  |  |  | > 3200 nM
Cc1ccc(C(O)c2ccc(C3CCN(C(=O)c4ncccc4Cl)C3)c(CO)c2)cc1 (stereo not drawn) [Compound 2-6, (3-chloropyridin-2-yl)(3-(4-(hydroxy(p-tolyl)methyl)-2-(hydroxymethyl)phenyl)pyrrolidin-1-yl)methanone] | > 1000 nM |  |  |  | > 3200 nM
Cc1ccc(C(=O)c2ccc(C3CCN(C(=O)c4ncccc4Cl)C3)c(CO)c2)cc1 (stereo not drawn) [Compound 2-7] | > 1000 nM |  |  |  | > 3200 nM
Cc1cccc(C(=O)c2ccc(C3CCN(C(=O)c4ncccc4Cl)C3)c(CO)c2)c1 (stereo not drawn) [Compound 2-9, (4-(1-(3-chloropicolinoyl)pyrrolidin-3-yl)-3-(hydroxymethyl)phenyl)(m-tolyl)methanone] | > 1000 nM |  |  |  | > 3200 nM
O=C(c1ccc(F)cc1)c1ccc(C2CCN(C(=O)c3ncccc3Cl)C2)c(CO)c1 (stereo not drawn) [Compound 2-10, (4-(1-(3-chloropicolinoyl)pyrrolidin-3-yl)-3-(hydroxymethyl)phenyl)(4-fluorophenyl)methanone] | > 1000 nM |  |  |  | > 3200 nM
O=C(c1ncccc1Cl)N1CCC(c2ccc(C(O)c3ccccc3Cl)cc2CO)C1 (stereo not drawn) [Compound 2-11, (3-(4-((2-chlorophenyl)(hydroxy)methyl)-2-(hydroxymethyl)phenyl)pyrrolidin-1-yl)(3-chloropyridin-2-yl)methanone] | > 1000 nM |  |  |  | > 3200 nM
CC(C)c1ccccc1Oc1ccc(C2CCN(C(=O)c3ccccn3)C2)c(CO)c1 (stereo not drawn) [Compound 2-13, (3-(2-(hydroxymethyl)-4-(2-isopropylphenoxy)phenyl)pyrrolidin-1-yl)(pyridin-2-yl)methanone] | 100 to 1000 nM |  |  |  | 193 nM
O=C(c1ccc(C2CCN(C(=O)c3ncccc3Cl)C2)c(CO)c1)c1ccccc1Cl (stereo not drawn) [Compound 2-14, (3-(4-(2-chlorobenzoyl)-2-(hydroxymethyl)phenyl)pyrrolidin-1-yl)(3-chloropyridin-2-yl)methanone] | > 1000 nM |  |  |  | > 3200 nM
CCc1ccccc1C(=O)c1ccc(C2CCN(C(=O)c3ncccc3Cl)C2)c(CO)c1 (stereo not drawn) [Compound 2-15, (4-(1-(3-chloropicolinoyl)pyrrolidin-3-yl)-3-(hydroxymethyl)phenyl)(2-ethylphenyl)methanone] | > 1000 nM |  |  |  | > 3200 nM
Cc1cccc(C(=O)N2CCC(c3ccc(Oc4ccccc4C(C)C)cc3CO)C2)n1 (stereo not drawn) [Compound 2-19, (3-(2-(hydroxymethyl)-4-(2-isopropylphenoxy)phenyl)pyrrolidin-1-yl)(6-methylpyridin-2-yl)methanone] | 10 to 100 nM |  |  |  | 191 nM
CC(C)c1ccccc1Oc1ccc(C2CCN(C(=O)c3ccc(C(F)(F)F)cn3)C2)c(CO)c1 (stereo not drawn) [Compound 2-21, (3-(2-(hydroxymethyl)-4-(2-isopropylphenoxy)phenyl)pyrrolidin-1-yl)(5-(trifluoromethyl)pyridin-2-yl)methanone] | 10 to 100 nM |  |  |  | 97.1 nM
COC(=O)c1cc(-c2ccccc2C(C)C)ccc1C1CCN(C(=O)c2ccc(F)cn2)C1 (stereo not drawn) [Compound 2-23] | 100 to 1000 nM |  |  |  | 886 nM
CCc1cncnc1Oc1ccc(C2CCN(C(=O)c3ccc(F)cn3)C2)c(CO)c1 (stereo not drawn) [Compound 2-24, (3-(4-(5-ethylpyrimidin-4-yloxy)-2-(hydroxymethyl)phenyl)pyrrolidin-1-yl)(5-fluoropyridin-2-yl)methanone] | > 1000 nM |  |  |  | > 3200 nM
